Legend:
Bgl.bli1 [1] = molecular target: T1, Bgl.bli1 (Bacillus licheniformis, UniProt Q65D83); assay: pNPG hydrolysis with added glucose; assay type: biochemical; settings: substrate pNPG, called competitive by the authors
T1 construct: gene BL01920; cloning primers encode start MARQTW and end TEEFRYK
T1 sequence (Q65D83 1-478): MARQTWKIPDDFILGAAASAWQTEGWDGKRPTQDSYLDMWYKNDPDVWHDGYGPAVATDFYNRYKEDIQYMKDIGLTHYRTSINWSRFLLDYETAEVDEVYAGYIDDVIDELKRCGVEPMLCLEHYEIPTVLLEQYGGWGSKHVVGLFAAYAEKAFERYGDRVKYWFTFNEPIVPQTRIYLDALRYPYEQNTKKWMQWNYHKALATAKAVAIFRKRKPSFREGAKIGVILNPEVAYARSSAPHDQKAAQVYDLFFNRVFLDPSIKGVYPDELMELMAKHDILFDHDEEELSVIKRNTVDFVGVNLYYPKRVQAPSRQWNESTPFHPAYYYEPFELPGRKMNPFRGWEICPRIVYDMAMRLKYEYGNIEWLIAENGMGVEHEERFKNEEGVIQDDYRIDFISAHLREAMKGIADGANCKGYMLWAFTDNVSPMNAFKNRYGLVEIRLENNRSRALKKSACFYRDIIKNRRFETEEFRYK
Source text: pNPG hydrolysis with added glucose on Bgl.bli1

Bgl.bli1 [2] = molecular target: T1, Bgl.bli1; assay: pNPG hydrolysis; assay type: biochemical; settings: standard assay, no glucose added

SMILES | Relative activity (%) at 10% (w/w) glucose (Bgl.bli1 [1]) [%] | pNPG hydrolysis (Bgl.bli1 [2])
OC[C@H]1OC(O)[C@H](O)[C@@H](O)[C@@H]1O (some centres unmarked) [glucose] | 49.26 | –
O=[N+]([O-])c1ccc(O[C@@H]2O[C@H](CO)[C@@H](O)[C@H](O)[C@H]2O)cc1 [p-nitrophenyl-β-D-glucopyranoside] | – | Bgl.bli1 activity was determined by measuring the hydrolysis of p-nitrophenyl-β-D-glucopyranoside (pNPG)
